The source of these data is patent US5358945A, “Pyrimidine compound and pharmaceutically acceptable salts thereof” (Mitsui Petrochemical Industries, Ltd., priority 1990, dated 1994).

The test system of one series is crushed sciatic nerves. Kind of series: Recovery of the interdigital distance in rats with crushed sciatic nerves (Table 9). In kind it is in vivo, rat (male Wistar). How it is done: Rats whose sciatic nerves were crushed were prepared as a model for peripheral nervous disorders and the effects of the compounds of this invention on it were tested. It was made clear that the compounds of the present invention have an effect of promoting recovery of the interdigit distance and the weight of the soleus muscle to normal values.
Curative effect on rats with crushed sciatic nerves: The curing effect of the compound of the invention was tested on rats having crushed sciatic nerves as a model of peripheral nervous disorder using (1) a change in the action of the hind paw with the crushed sciatic nerves and (2) a change in the weight of the muscle as an index of the course of degeneration and regeneration of peripheral nerves.
In the experiment, male Wistar rats (6 weeks old), 10-15 per group, were used. The sciatic nerves were crushed by a method similar to the method of Yamatsu et al. (see Kiyomi Yamatsu, Takenori Kaneko, Akifumi Kitahara and Isao Ohkawa, Journal of Japanese Pharmacological Society, 72, 259-268 (1976) and the method of Hasegawa et al. (see Kazuo Hasegawa, Naoji Mikuni and Yutaka Sakai, Journal of Japanese Pharmacological Society, 7 4 721-734 (1978). Specifically, under anesthesia with pentobarbital (40 mg/kg, i.p.), the left side sciatic nerve was exposed at the femur and a given site was crushed with hemostat (2ram in width) for 30 seconds. After crushing, the operated site was immediately sitched. Vincristine, known to delay the regeneration of peripheral nerves, was administered intraperitoneally at 100 μg/kg per week.
Test compounds selected from the compounds of the invention were administered intraperitoneally or orally once a day from the day of operation to the 30th day. A group to which 0.9% saline was administered was used as control.
According to the method of Hasegawa [Hasegawa, K., Experientia, 34, 750-751 ( 1978)], the distance between the first and fifth digits of the hind paw was measured and the ratio of a crushed-side distance to a normal-side distance was calculated.
*Compound 274 is orally administered to a group of rats with the crushed

For another series, the system named is Mouse neuro 2a cells. Kind of series: Neurite outgrowth of mouse neuroblastoma neuro 2a cells (Table 7). It is filed as cell-based. To be noted: mean ± S.D. The procedure, abridged: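 Neuro-2a cells seeded at 1,000 cells/well in DMEM with 10% FCS, cultured one day at 37 °C, 5% CO2, then 24 h with compound (up to 6 concentrations, triplicate). Fixed with glutaraldehyde, methylene blue stained; percentage of cells bearing neurites ≥2× cell long diameter counted microscopically (>200 cells).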

Series [1] deals with Mouse neuroblastoma cells NS-20Y. Nature of the series: Neurite appearance in mouse neuroblastoma NS-20Y cells (Table 8).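 Note: cells grown in polyornithine-coated dishes, with timing counted from the start of culture.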 It is filed as cell-based.
In a further series the test system is mouse. Kind of series: Acute toxicity in mouse (Table 10). It is filed as in vivo. To be noted: in vivo, ip. As for the experimental part: The acute toxicity of the compounds of the invention was examined by the following method.
Male ddy-strain 5-week old mice, 4-6 per group, were used as experimental animals. Each of the compounds was dissolved or suspended in saline and administered perorally (p.o.) or intraperitoneally (i.p.), and the toxicity of the compound was assessed 24 hours after the administration.

Structures are written as SMILES. Counter-ions that a name gives are not always drawn. Some results are limits rather than exact numbers.

For the compound `O=C1CCCN1c1ccnc(N2CCCCC2)n1` [Compound 274, 4-(2-oxopyrrolidino)-2-(4-piperidino) pyrimidine hydrochloride], the “Rate of recovery of the interdigital distance” value (from here on “Rate”) in the series on crushed sciatic nerves (7.5 mg/kg orally, 7 days after crush) is given as 42.6 ± 6.8%; in the series on crushed sciatic nerves (7.5 mg/kg orally, 14 days after crush), 37.6%; with crushed sciatic nerves (7.5 mg/kg orally, 16 days after crush), 38.4%; in the series with crushed sciatic nerves (7.5 mg/kg orally, 18 days after crush), 40.9 ± 6.2%; in the series on crushed sciatic nerves (7.5 mg/kg orally, 20 days after crush), 45.6 ± 14.0%; with crushed sciatic nerves (7.5 mg/kg orally, 22 days after crush), 46.8 ± 13.2%. For the same compound, the “Rate” value in the series on crushed sciatic nerves (7.5 mg/kg orally, 24 days after crush) is listed as 48.2%; with crushed sciatic nerves (7.5 mg/kg orally, 26 days after crush), 54.8%; with crushed sciatic nerves (7.5 mg/kg orally, 28 days after crush) it was 66.9 ± 19.6%; in the series on crushed sciatic nerves (7.5 mg/kg orally, 30 days after crush) it was 64.0 ± 21.2%; in the series with crushed sciatic nerves (15 mg/kg orally, 7 days after crush), 39.8 ± 5.2%; in the series on crushed sciatic nerves (15 mg/kg orally, 14 days after crush) it was 38.2%. Also, the “Rate” value in the series on crushed sciatic nerves (15 mg/kg orally, 16 days after crush) was 39.4%; with crushed sciatic nerves (15 mg/kg orally, 18 days after crush), 40.5 ± 4.2%; in the series with crushed sciatic nerves (15 mg/kg orally, 20 days after crush) it was 46.7 ± 7.3%; in the series with crushed sciatic nerves (15 mg/kg orally, 22 days after crush), 50.0 ± 10.0%; in the series with crushed sciatic nerves (15 mg/kg orally, 24 days after crush), 56.8%; with crushed sciatic nerves (15 mg/kg orally, 26 days after crush), 62.2%. In addition, the “Rate” value is given as 65.5 ± 19.8% in the series with crushed sciatic nerves (15 mg/kg orally, 28 days after crush); 70.1 ± 21.4% in the series on crushed sciatic nerves (15 mg/kg orally, 30 days after crush); 38.8 ± 4.4% in the series with crushed sciatic nerves (30 mg/kg orally, 7 days after crush); 39.2% in the series on crushed sciatic nerves (30 mg/kg orally, 14 days after crush); 38.3% in the series on crushed sciatic nerves (30 mg/kg orally, 16 days after crush); 40.8 ± 4.5% in the series with crushed sciatic nerves (30 mg/kg orally, 18 days after crush). In addition, the “Rate” value with crushed sciatic nerves (30 mg/kg orally, 20 days after crush) stood at 43.8 ± 6.7%; in the series with crushed sciatic nerves (30 mg/kg orally, 22 days after crush), 47.8 ± 11.5%; in the series on crushed sciatic nerves (30 mg/kg orally, 24 days after crush), 57.0%; in the series on crushed sciatic nerves (30 mg/kg orally, 26 days after crush) it was 60.9%; in the series with crushed sciatic nerves (30 mg/kg orally, 30 days after crush) it was 73.6 ± 20.0%. Besides, the “Ratio of the number of cells having neurites with a length of at least two times as large as the diameter of cells to the total number of cells” value (shortened to “Ratio”) with Mouse neuro 2a cells (0.3 mM, hydrochloride) came out at 25.8 ± 3.5%. Moreover, the “The number of cells in which neurites appeared/Total number of cells” value in series [1] (24 hour, 0.1 mM, hydrochloride) is 4/50; in series [1] (24 hour, 0.2 mM, hydrochloride), 6/50; in series [1] (48 hour, 0.2 mM, hydrochloride), 4/50; in series [1] (48 hour, 0.5 mM, hydrochloride) it was 6/50. Moreover, in the series on mouse, the “Estimated LD50” value was 250 to 500 mg/kg.
As for `CC(=O)c1ccc(C(=O)N(C)c2ccnc(N3CCC(c4ccccc4)CC3)n2)cc1` [Compound 176], the “Ratio” value in the series with Mouse neuro 2a cells (0.01 mM) worked out at 18.4 ± 2.0%; with Mouse neuro 2a cells (0.03 mM), 11.5 ± 2.1%; in the series with Mouse neuro 2a cells (0.3 mM) it was 13.6 ± 0.9%; in the series with Mouse neuro 2a cells (1 mM), 14.8 ± 2.9%. Also, the “The number of cells in which neurites appeared/Total number of cells” value in series [1] (24 hour, 0.2 mM) was 4/50; in series [1] (48 hour, 0.2 mM), 4/50. Also, in the series on mouse, the “Estimated LD50” value is on record as more than 1000 mg/kg.
Turning to `CN(C(=O)C12CC3CC(CC(C3)C1)C2)c1ccnc(N2CCC(c3ccccc3)CC2)n1` [Compound 160], the “Ratio” value in the series with Mouse neuro 2a cells (0.03 mM) is reported as 5.1 ± 1.2%; in the series on Mouse neuro 2a cells (0.1 mM) it was 11.4 ± 1.3%; in the series on Mouse neuro 2a cells (0.3 mM), 23.5 ± 2.9%; in the series with Mouse neuro 2a cells (1 mM), 20.7 ± 2.7%. Moreover, the “The number of cells in which neurites appeared/Total number of cells” value is 2/50 in series [1] (24 hour, 0.2 mM) and 3/50 in series [1] (48 hour, 0.1 mM). Moreover, the “Estimated LD50” value in the series with mouse was 500 to 1000 mg/kg.
